Reference: patent US12329822B2, “Antimicrobial tailored chitosan” (UNIVERSITÉ DE GENÈVE, priority 2019, dated 2025)

What was measured:
[1] = tested on: M. tuberculosis; settings: native peptide; cited from earlier work
[2] = tested on: S. aureus; settings: native peptide; cited from earlier work
[3] = tested on: P. aeruginosa; settings: native peptide; cited from earlier work
[4] = tested on: C. albicans; settings: native peptide; cited from earlier work
[5] = tested on: E. coli; settings: native peptide; cited from earlier work
[6] = tested on: P. aeruginosa (PA01); assay: Transmission electron microscopy (TEM) on P. aeruginosa; assay type: cell-based, Pseudomonas aeruginosa
Procedure: Method 1 for Example 2: Transmission Electron Microscopy (TEM) with A3-S—C1 on P. aeruginosa
Pseudomonas aeruginosa PAO1 in the exponential phase were washed with phosphate buffered saline (PBS) and treated with 5 μg/mL Polymyxin B, 40 μg/mL G3KL and 40 or 64 μg/mL […] in M63 minimal medium. Each time, 1 ml of the bacteria were centrifuged after 15, 30 and 60 min at 12′000 rpm for 3 min and fixed overnight with 2.5% glutaraldehyde (Agar Scientific, Stansted, Essex, UK) in 0.15 M HEPES (Fluka, Buchs, Switzerland) with an osmolarity of 670 mOsm and adjusted to a pH of 7.35. The next day, PAO1 were washed with 0.15 M HEPES three times for 5 min, post fixed with 1% OsO4 (SPI Supplies, West Chester, USA) in 0.1 M Na-cacodylate-buffer (Merck, Darmstadt, Germany) at 4° C. for 1 h. Thereafter, bacteria were washed in 0.1 M Na-cacodylate-buffer three times for 5 min and dehydrated in 70, 80, and 96% ethanol (Alcosuisse, Switzerland) for 15 min each at room temperature. Subsequently, they were immersed in 100% ethanol (Merck, Darmstadt, Germany) three times for 10 min, in acetone (Merck, Darmstadt, Germany) two times for 10 min, and finally in acetone-Epon (1:1) overnight at room temperature. The next day, bacteria were embedded in Epon (Fluka, Buchs, Switzerland) and hardened at 60° C. for 5 days. […]

Row | Substance | MIC [1] [µg/mL] | MIC [2] [µg/mL] | MIC [3] [µg/mL] | MIC [4] [µg/mL] | MIC [5] [µg/mL] | Effect on bacterial membranes (TEM imaging) [6] | Effect on P. aeruginosa (PA01) ([6]; TEM, concentration 5 μg/mL)
1 | IDR-1018: linear AMP VRLIVAVRIWRR (SEQ ID NO: 9) (AMP) | 16 | 5 | 19 | – | – | – | –
2 | OP-145: linear AMP IGKEFKRIVERIKRFLRELVRPLR (SEQ ID NO: 12) (AMP) | – | – | 9.2 to 18.3 | 18.3 | 6.1 to 9.2 | – | –
3 | Polymyxin B | – | – | – | – | – | attacks only the outer membrane of the bacteria | Attack on the outer membrane
